Measurements reported in patent US20080069809A1, “Compositions and methods for the diagnosis and treatment of cancer” (priority 2006, published 2008).

Key:
Format in all cases: cell-based
KG1a = test: Apoptosis (sub-G1 DNA by FACS) in KG1a leukemic cells; details: even at 20 μM PEP005
Procedure: The myeloid leukemic cell lines HL60, NB60, NB4, U937, K562 and KG1a were all grown in RPMI 1640 medium (Life Technologies, Paisley, United Kingdom) supplemented with 10% v/v fetal calf serum (Sear Laboratories International Crawley, United Kingdom), 100 U/mL penicillin, and 100 μg/mL streptomycin (Sigma Aldrich, Poole, United Kingdom) at 37° C. and 5% v/v CO2. AML blasts were isolated from patient bone marrow aspirates and peripheral blood of eight patients at diagnosis or relapse. Patients were not receiving AML therapy at time of sampling. Blasts were isolated by Ficoll density centrifugation and were cultured in serum-free insulin transferrin selenium-positive (ITS+) medium (Life Technologies) containing 300 ng/mL stem cell factor (SCF) and 10 ng/mL interleukin 3 (IL3; R and D Systems, Abingdon, United Kingdom) and antibiotics. […] Normal myeloblasts were isolated from cord blood or adult mobilized peripheral blood. Briefly, CD34^+ cells were indirectly selected from the mononuclear cell preparations using antibody-coated magnetic beads (Miltenyi Biotec, United Kingdom).
To determine the effects of ingenol-3-angelate (PEP005), cells were incubated for up to 5 days with medium alone or PEP005 at a range of concentrations from 0.2 nM to 20 μM. […] Apoptosis and differentiation were assessed after 1 to 5 days.

NB4 = test: Differentiation (CD11b expression) in NB4 cells; details: treated 5 days
Procedure: (§1) The myeloid leukemic cell lines HL60, NB60, NB4, U937, K562 and KG1a were all grown in RPMI 1640 medium (Life Technologies, Paisley, United Kingdom) supplemented with 10% v/v fetal calf serum (Sear Laboratories International Crawley, United Kingdom), 100 U/mL penicillin, and 100 μg/mL streptomycin (Sigma Aldrich, Poole, United Kingdom) at 37° C. and 5% v/v CO2. AML blasts were isolated from patient bone marrow aspirates and peripheral blood of eight patients at diagnosis or relapse. Patients were not receiving AML therapy at time of sampling. […] Blast purity ranged from 80% to 95%, as assessed by expression of CD34. […]
(§2) Cell differentiation was determined by staining of cells with anti-CD11b antibody as a general early marker of myeloid differentiation. In studies with HL60 cells, PEP005-treated and 20 nM phorbol myristate (PMA)-treated (Sigma Aldrich) cells were also assessed for their ability to phagocytose complement-coated yeast, a marker of a fully differentiated myeloid cell, as previously described (Toksoz et al, Leukemia Res 6:491-498, 1982). […] Images were captured with a SPOT2 cameria (Diagnostic Instructions, Sterling Heights, Mich.) and analyzed using Image-Pro 4.0 software (Media Cybernetics, Silver Spring, Md.).

U937 = test: Differentiation (CD11b expression) in U937 cells
Procedure: The myeloid leukemic cell lines HL60, NB60, NB4, U937, K562 and KG1a were all grown in RPMI 1640 medium (Life Technologies, Paisley, United Kingdom) supplemented with 10% v/v fetal calf serum (Sear Laboratories International Crawley, United Kingdom), 100 U/mL penicillin, and 100 μg/mL streptomycin (Sigma Aldrich, Poole, United Kingdom) at 37° C. and 5% v/v CO2. AML blasts were isolated from patient bone marrow aspirates and peripheral blood of eight patients at diagnosis or relapse. Patients were not receiving AML therapy at time of sampling. Blasts were isolated by Ficoll density centrifugation and were cultured in serum-free insulin transferrin selenium-positive (ITS+) medium (Life Technologies) containing 300 ng/mL stem cell factor (SCF) and 10 ng/mL interleukin 3 (IL3; R and D Systems, Abingdon, United Kingdom) and antibiotics. Blast purity ranged from 80% to 95%, as assessed by expression of CD34. Normal myeloblasts were isolated from cord blood or adult mobilized peripheral blood. Briefly, CD34^+ cells were indirectly selected from the mononuclear cell preparations using antibody-coated magnetic beads (Miltenyi Biotec, United Kingdom).
as §2, with “1982). The ingestion of three or more yeasts was taken as a positive result. In normal cord blood or adult bone marrow myeloblasts, loss of CD34 was taken as a marker of differentiation. Isotype-matched controls were used and all antibodies were from DAKO (Cambridge, United Kingdom).” for “1982).”

K562 = test: Differentiation (CD11b expression) in K562 cells
Procedure: as §1, §2

PKC-δ = molecular target: T1, PKC-δ (Homo sapiens, UniProt Q05655); test: PKC-δ cleavage to 40-kDa fragment in HL60 cells (Western blotting); details: 20 nM PEP005 for up to 9 hours
T1 construct: endogenous in cells; host or cells: HL60
T1 sequence (Q05655 whole entry, the tested form may be a part): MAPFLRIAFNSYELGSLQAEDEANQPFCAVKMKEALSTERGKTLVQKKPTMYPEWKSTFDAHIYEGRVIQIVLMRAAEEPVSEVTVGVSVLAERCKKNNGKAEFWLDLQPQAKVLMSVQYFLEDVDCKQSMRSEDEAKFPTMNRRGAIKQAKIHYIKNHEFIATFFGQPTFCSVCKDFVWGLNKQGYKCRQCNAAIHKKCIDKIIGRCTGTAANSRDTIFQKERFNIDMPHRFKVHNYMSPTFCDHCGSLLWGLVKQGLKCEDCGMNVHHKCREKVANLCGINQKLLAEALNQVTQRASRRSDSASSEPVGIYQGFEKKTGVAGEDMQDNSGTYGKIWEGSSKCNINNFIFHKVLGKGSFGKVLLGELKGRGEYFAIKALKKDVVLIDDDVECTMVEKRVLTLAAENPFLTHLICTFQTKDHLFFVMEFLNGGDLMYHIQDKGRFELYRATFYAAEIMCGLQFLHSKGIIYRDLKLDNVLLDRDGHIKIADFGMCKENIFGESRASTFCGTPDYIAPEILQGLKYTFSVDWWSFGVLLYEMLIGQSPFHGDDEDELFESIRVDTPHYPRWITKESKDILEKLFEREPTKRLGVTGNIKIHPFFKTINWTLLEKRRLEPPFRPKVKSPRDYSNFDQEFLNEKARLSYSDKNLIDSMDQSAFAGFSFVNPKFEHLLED
Procedure: PKC isoenzyme expression in leukemic cell lines was determined by Western blotting. Cells (0.5×10^6) were lysed in lysis buffer (20 mM Tris [tris(hydroxymethyl-aminomethane]-HCl, pH 7.4, containing 150 mM NaCl, 0.5 mM EDTA [ethylenediaminetertraacetic acid], 1 mM dithiothreitol, 1 mM phenymethlsulfonylfuoride, 10 μg/mL of aprotinin, leupeptin, and pepstatin A, and 1% Triton-X-100). the lysate was spun at 1000 g for 10 minutes to isolate nuclei and was then combined 1:1 with sodium dodecyl sulfate (SDS) sample buffer and boiled for 5 minutes. The extracts were then analyzed by Western blotting using antibodies to the major isoenzymes found in myeloid cells, namely PKC-α, PKC-β, PKC-δ and PKC-ξ (all purchased from Santa Cruz Biotechnology, Santa Cruz, Calif.). Blots were developed using an enhanced chemiluminescence (ECL) method (Amersham Pharmacia, Buckinghamshire, United Kingdom).

[1] = system: EGFP-positive PKC-δ-expressing KG1a cells; test: Apoptosis / viability in KG1a cells transfected with EGFP-PKC-δ
Procedure: KG1a cells were transiently transfected with EGFP-tagged mouse PKC-δ subcloned into pEGFP-N1 plasmid (available from National Cancer Institute [NCI], Bethesda, Md.) using an Amaxa nucleofection apparatus (Amaxa, Koeln, Germany). Transfection efficiency was approximately 35% as judged by fluorescence-activated cell sorter (FACS) analysis and cells were treated with PEP005 (0.2 μM-20 μM) 24 hours after transfection. Cell viability in EGFP-positive cells was assessed by analysis of cell morphology (forward scatter and side scatter profile) by FACS and loss of viability confirmed in the total cell culture by MTT assay after 3 days. Briefly, 24 hours after transfection, 2×10^4 cells were plated in five wells in 96-well plates and exposed to […] PEP005. At 72 hours, 20 μL MTT substrate at 5 mg/mL was added and plates were incubated at 37° C. After 3 hours, 150 μL media was removed and replated with 200 μL dimethyl sulfoxide (DMSO). Absorbance at an optical density (OD) of 550 nm was read on a Biotech plate reader (Amersham Pharmacia) and corrected for absorbance obtained from blank media controls.

C/C=C(/C)C(=O)O[C@H]1C(C)=C[C@]23C(=O)[C@@H](C=C(CO)[C@@H](O)[C@]12O)[C@H]1[C@@H](C[C@H]3C)C1(C)C [PEP005, ingenol-3-angelate]
entry into apoptosis (KG1a): did not enter apoptosis | PEP005 concentration with optimal effect, CD11b expression (NB4): 20 nM | predominant response (kinetic study) (U937): expressed CD11b as the predominant response before entering apoptosis | synergy with ATRA in CD11b differentiation response (U937; 10 nM ATRA and 20 nM PEP005 in combination, 5 days): able to synergize with ATRA | PEP005 concentration with optimal effect, CD11b expression (U937; treated 5 days): 20 nM | CD11b expression (K562): did not increase expression of CD11b | production of the 40-kDa fragment of PKC-δ (PKC-δ): produced rapidly | viability of total cell population by MTT assay ([1]; PEP005, after 3 days): Loss of viability was confirmed | apoptosis (forward and side scatter by FACS) ([1]; PEP005 for 3 days, 24 hours after transfection, doses commensurate with those in HL60, U937 and NB4): resulted in apoptosis
